Results reported in US12527837B2, “Peptide for use in the prevention and/or treatment of a disease caused by a virus affecting the respiratory tract” (priority 2020, dated 2026).
Where two headings read alike, the source gives them in different places. No end group written: not given here.

How the values were obtained:
[1] = tested on: standardised antigens from H1N1 virus; experiment: Haemagglutination Inhibition Assay (HAI) with standardised antigens of influenza virus subtype H1N1; type: cell-based; settings: for activity of lysine-acetylated derivatives against the influenza virus compared with the parent peptides of example 2.1: HAI with standardised antigens
[2] = tested on: live virus from subtype H1N1 of influenza virus; experiment: HAI with live influenza virus subtype H1N1; type: cell-based; settings: live virus 4 HAU/25 μl; 1.5% v/v turkey red blood cells; FIG. 4A
[3] = tested on: live virus from subtype H3N2 of influenza virus; experiment: HAI with live influenza virus subtype H3N2; type: cell-based; settings: live virus 4 HAU/25 μl; 1.5% v/v turkey red blood cells; FIG. 4B
[4] = tested on: MDCK cells
[5] = tested on: measles virus; experiment: HAI with heat-inactivated viral lysate of measles virus; type: cell-based; settings: heat-inactivated viral lysate 4 UHA/25 μl; 1.5% v/v turkey RBC; FIG. 5
[6] = tested on: human coronavirus HcoV-OC43; experiment: HAI with heat-inactivated viral lysate of HcoV-OC43; type: cell-based; settings: heat-inactivated viral lysate 4 UHA/25 μl; 1.5% v/v turkey RBC; FIG. 5
[7] = tested on: human coronavirus SARS-CoV-2; experiment: HAI with heat-inactivated viral lysate of SARS-CoV-2; type: cell-based; settings: heat-inactivated viral lysate 4 UHA/25 μl; 1.5% v/v turkey RBC; FIG. 5
[8] = MDCK cells, 20 hours, MTS, FIG. 10
[9] = MDCK cells, 20 hours, MTS, highest concentration tested 1 mg/ml

Substance: LEK*GLDGAKK AVGGLGKLGKDAVEDLESVGKGAVHDVKDVL (LEK(Ac)GLDGAKKAVGGLGKLGKDAVEDLESVGKGAVHDVKDVL) [SEQ ID No.: 29]
- activity of lysine-acetylated derivatives against the influenza virus compared with the parent peptides of example 2.1 [1]: the same activity

Substance: LEK*GLDGAKK AVGGLGKLGKDAVEDLESVGKGAVHDVKDVLD (LEK(Ac)GLDGAKKAVGGLGKLGKDAVEDLESVGKGAVHDVKDVLD) [SEQ ID No.: 19]
- activity of lysine-acetylated derivatives against the influenza virus compared with the parent peptides of example 2.1 [1]: the same activity

Substance: LEK*GLDGAKK AVGGLGKLGKDAVEDLESVGKGAVHDVKDVLDSVL (LEK(Ac)GLDGAKKAVGGLGKLGKDAVEDLESVGKGAVHDVKDVLDSVL) [SEQ ID No.: 20]
- activity against the H1N1 subtype of live influenza virus (HAI) [2]: had activity
- activity of lysine-acetylated derivatives against the influenza virus compared with the parent peptides of example 2.1 [1]: the same activity
- activity against the H3N2 subtype of live influenza virus (HAI) [3]: had activity

Substance: LEKGLDGAKKAVGGLGKLGKDAVEDLESVGKGAVHDVKDVLD (LEKGLDGAKKAVGGLGKLGKDAVEDLESVGKGAVHDVKDVLD; LEK-42) [SEQ ID No.: 1, dermcidin fragment]
- activity against standardised antigens of H1N1 subtype of influenza virus (inhibiting haemagglutination) ([1]; H1N1 antigens 8 HAU/50 μl, 5% v/v turkey red blood cells, FIG. 2 and FIG. 3): had activity

Substance: LEKGLDGAKKAVGGLGKLGKDAVEDLESVGKGAVHDVKDVLDSVL [SEQ ID No.: 2, LEKGLDGAKKAVGGLGKLGKDAVEDLESVGKGAVHDVKDVLDSVL]
- peptides that cause significant toxicity in cells [4, 8]: none
- cells in the culture that exhibited toxicity [4, 9]: 20%

Substance: RRKKAAVALLPAVLLALLAP [EB, RRKKAAVALL PAVLLALLAP, reference compound]
- cytotoxicity observed in the culture [4]: total cell destruction
- cytotoxicity of the cells in the culture [4]: 50%

Substance: SSLLEK*GLDG AKKAVGGLGK LGKDA (SSLLEK(Ac)GLDGAKKAVGGLGKLGKDA) [SEQ ID No.: 28]
- activity of lysine-acetylated derivatives against the influenza virus compared with the parent peptides of example 2.1 [1]: the same activity

Substance: SSLLEK*GLDG AKKAVGGLGKLGKDAVEDLESVGKGAVHDVKDVLD (SSLLEK(Ac)GLDGAKKAVGGLGKLGKDAVEDLESVGKGAVHDVKDVLD) [SEQ ID No.: 21]
- activity of lysine-acetylated derivatives against the influenza virus compared with the parent peptides of example 2.1 [1]: the same activity
- activity against the H3N2 subtype of live influenza virus (HAI) [3]: had activity

Substance: SSLLEK*GLDG AKKAVGGLGKLGKDAVEDLESVGKGAVHDVKDVLDSV (SSLLEK(Ac)GLDGAKKAVGGLGKLGKDAVEDLESVGKGAVHDVKDVLDSV) [SEQ ID No.: 22]
- activity against the H1N1 subtype of live influenza virus (HAI) [2]: had activity
- activity against measles virus (preventing adhesion of the virus to RBCs) [5]: active
- activity against HcoV-OC43 (preventing adhesion of the virus to RBCs) [6]: active
- activity against the H3N2 subtype of live influenza virus (HAI) [3]: had activity
- activity against SARS-CoV-2 (preventing adhesion of the virus to RBCs) [7]: active

Substance: SSLLEK*GLDG AKKAVGGLGKLGKDAVEDLESVGKGAVHDVKDVLDSVL (SSLLEK(Ac)GLDGAKKAVGGLGKLGKDAVEDLESVGKGAVHDVKDVLDSVL) [SEQ ID No.: 23]
- activity against the H1N1 subtype of live influenza virus (HAI) [2]: had activity
- activity against measles virus (preventing adhesion of the virus to RBCs) [5]: active
- activity against HcoV-OC43 (preventing adhesion of the virus to RBCs) [6]: active
- activity of lysine-acetylated derivatives against the influenza virus compared with the parent peptides of example 2.1 [1]: the same activity
- activity against the H3N2 subtype of live influenza virus (HAI) [3]: had activity
- activity against SARS-CoV-2 (preventing adhesion of the virus to RBCs) [7]: active

Substance: SSLLEKGLDGAKKAVGGLGKLGKDAVEDLESVGKGAVHDVKDVLD [SEQ ID No.: 3, SSLLEKGLDGAKKAVGGLGKLGKDAVEDLESVGKGAVHDVKDVLD]
- peptides that cause significant toxicity in cells [4, 8]: none
- cells in the culture that exhibited toxicity [4, 9]: 20%

Substance: SSLLEKGLDGAKKAVGGLGKLGKDAVEDLESVGKGAVHDVKDVLDSVL [SEQ ID No.: 5, SSLLEKGLDGAKKAVGGLGKLGKDAVEDLESVGKGAVHDVKDVLDSVL]
- cells in the culture that exhibited toxicity [4]: 20%
- peptides that cause significant toxicity in cells [4]: none
